Read-outs that look alike come from different tables or passages of the source.

The target of experiment [1] is WRN (BV08), human Werner helicase (Uniprot Q14191, amino acids 517-1235 with L1074F point mutation) (Homo sapiens (Human), UniProt Q14191, L1074F). In words: WRN (BV08) ADP-Glo assay. The experiment is classed as biochemical. The conditions noted are these: class symbols A-E, read-out: ADP-Glo_hWRN_IC50. Background: In ADP-Glo the light output rises with the ADP produced.

The subject of experiment [2] is p21 induction in HCT116 cells. As to the kind of experiment: p21 induction in HCT116 cells. Type of experiment: cell-based. The conditions noted are these: HCT116 cells, 24 h compound incubation, read-out: P21_EC50. In short, it runs like this: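 HCT116 cells, 2,000/well, treated 24 h at 37 °C with 11-point compound dilutions in duplicate. Fixed, then immunostained for p21 and GAPDH and read by near-IR imaging at 800/700 nm. Normalized to DMSO (low) and reference WRN inhibitor (high) controls; EC50 from non-linear regression.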

WRN (BV08), human Werner helicase (Uniprot Q14191, amino acids 517-1235 with L1074F point mutation), sequence (Q14191 other isoform, or with tags, fused parts or gaps L1074F (already in the parent)): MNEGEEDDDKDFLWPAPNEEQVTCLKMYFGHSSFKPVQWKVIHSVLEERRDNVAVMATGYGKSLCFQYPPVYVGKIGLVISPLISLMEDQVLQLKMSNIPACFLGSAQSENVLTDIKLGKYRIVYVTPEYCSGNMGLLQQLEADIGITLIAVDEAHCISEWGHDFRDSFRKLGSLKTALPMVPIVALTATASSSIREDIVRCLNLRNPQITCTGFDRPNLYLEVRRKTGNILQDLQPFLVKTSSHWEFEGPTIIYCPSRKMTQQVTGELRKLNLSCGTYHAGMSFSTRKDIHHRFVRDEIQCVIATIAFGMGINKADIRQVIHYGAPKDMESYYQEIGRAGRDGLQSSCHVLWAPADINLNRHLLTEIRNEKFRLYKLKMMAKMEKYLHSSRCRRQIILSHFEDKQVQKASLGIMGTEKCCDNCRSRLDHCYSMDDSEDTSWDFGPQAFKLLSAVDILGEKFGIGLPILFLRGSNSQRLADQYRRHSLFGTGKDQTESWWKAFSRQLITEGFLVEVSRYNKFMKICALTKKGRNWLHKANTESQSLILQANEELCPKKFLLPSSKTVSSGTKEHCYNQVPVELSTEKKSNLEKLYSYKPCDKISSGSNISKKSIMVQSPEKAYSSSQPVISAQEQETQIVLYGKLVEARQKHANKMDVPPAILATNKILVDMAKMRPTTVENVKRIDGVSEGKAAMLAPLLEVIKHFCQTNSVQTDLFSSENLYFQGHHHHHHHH

With `CCc1c(N2CCN(C(=O)c3ncnc(C)c3O)[C@H](C)[C@H]2C)c(=O)c2nc(N(C)C)cnc2n1CC(=O)Nc1ccc(C(F)(F)F)cc1Cl` (single isomer, unassigned) [I-233, N-(2-chloro-4-(trifluoromethyl)phenyl)-2-(2-(dimethylamino)-6-ethyl-7-(4-(5-hydroxy-6-methylpyrimidine-4-carbonyl)-2,3-dimethylpiperazin-1-yl)-8-oxopyrido[2,3-b]pyrazin-5(8H)-yl)acetamide], the IC50 in experiment [1] was in the range of 0.005 to 0.05 µM. The EC50 in experiment [2] (Homo sapiens, HCT-116, 24 h) was more than 5 µM.

As for `CCc1c(N2CCN(C(=O)c3ncnc(C)c3O)CC2)c(=O)c2nc(N(C)[C@H]3CC[C@H]3OC)cnc2n1CC(=O)Nc1ccc(C(F)(F)F)cc1Cl` (racemic) [I-146, rac-N-(2-chloro-4-(trifluoromethyl)phenyl)-2-(6-ethyl-7-(4-(5-hydroxy-6-methylpyrimidine-4-carbonyl)piperazin-1-yl)-2-((2-methoxycyclobutyl)(methyl)amino)-8-oxopyrido[2,3-b]pyrazin-5(8H)-yl)acetamide], the IC50 in experiment [1] lay within 0.005 to 0.05 µM. Also, the EC50 in experiment [2] (Homo sapiens, HCT-116, 24 h) lay within 2 to 5 µM.

Consider `CCc1c(N2CCN(C(=O)c3ncnc(C)c3O)[C@H]3CC[C@@H]32)c(=O)c2nc(N(C)C)cnc2n1CC(=O)Nc1ccc(C(F)F)cc1Cl` [I-240, N-[2-chloro-4-(difluoromethyl)phenyl]-2-[2-(dimethylamino)-6-ethyl-7-[(1S,6S)-5-(5-hydroxy-6-methylpyrimidine-4-carbonyl)-2,5-diazabicyclo[4.2.0]octan-2-yl]-8-oxo-5H,8H-pyrido[2,3-b]pyrazin-5-yl]acetamide], for which the IC50 in experiment [1] fell in the range of 0.005 to 0.05 µM. Besides, in experiment [2] (Homo sapiens, HCT-116, 24 h), the EC50 was less than 0.5 µM.

As to `CCc1c(N2CCN(C(=O)c3ncc4c(c3O)CCO4)CC2)c(=O)c2ncc(C)nc2n1CC(=O)Nc1ccc(C(F)(F)F)cc1Cl` [I-69, N-(2-chloro-4-(trifluoromethyl)phenyl)-2-(6-ethyl-7-(4-(4-hydroxy-2,3-dihydrofuro[2,3-c]pyridine-5-carbonyl)piperazin-1-yl)-3-methyl-8-oxopyrido[2,3-b]pyrazin-5(8H)-yl)acetamide], the IC50 in experiment [1] lay within 0.005 to 0.05 µM. Moreover, the EC50 in experiment [2] (Homo sapiens, HCT-116, 24 h) was more than 5 µM.

Regarding `CCc1c(N2CCN(C(=O)c3c(C#N)cnc(C)c3O)CC2)c(=O)c2ncc(C)nc2n1CC(=O)Nc1ccc(C(F)(F)F)cc1Cl` [I-145, N-[2-chloro-4-(trifluoromethyl)phenyl]-2-{7-[4-(5-cyano-3-hydroxy-2-methylpyridine-4-carbonyl)piperazin-1-yl]-6-ethyl-3-methyl-8-oxo-5H,8H-pyrido[2,3-b]pyrazin-5-yl}acetamide], the IC50 in experiment [1] lay within 0.005 to 0.05 µM. In experiment [2] (Homo sapiens, HCT-116, 24 h), the EC50 is more than 5 µM.

`CCc1c(N2CCN(C(=O)c3ncnc(C)c3O)CC2)c(=O)c2nccnc2n1CC(=O)Nc1ccc(C(F)(F)F)cc1Cl` [I-46, N-(2-chloro-4-(trifluoromethyl)phenyl)-2-(6-ethyl-7-(4-(5-hydroxy-6-methylpyrimidine-4-carbonyl)piperazin-1-yl)-8-oxopyrido[2,3-b]pyrazin-5(8H)-yl)acetamide]: in experiment [1], the IC50 was 0.005 to 0.05 µM. Moreover, in experiment [2] (Homo sapiens, HCT-116, 24 h), the EC50 was more than 5 µM.

As to `CCc1c(N2CCN(C(=O)c3ncnc(C)c3O)CC2)c(=O)c2nc(N3CCC4(CCC4)C3)cnc2n1CC(=O)Nc1ccc(C(F)(F)F)cc1Cl` [I-151, 2-(2-{6-azaspiro[3.4]octan-6-yl}-6-ethyl-7-[4-(5-hydroxy-6-methylpyrimidine-4-carbonyl)piperazin-1-yl]-8-oxo-5H,8H-pyrido[2,3-b]pyrazin-5-yl)-N-[2-chloro-4-(trifluoromethyl)phenyl]acetamide], the IC50 in experiment [1] lay within 0.005 to 0.05 µM. The EC50 in experiment [2] (Homo sapiens, HCT-116, 24 h) fell in the range of 2 to 5 µM.

In the case of `CCc1c(N2CCN(C(=O)c3ncnc(C)c3O)CC2)c(=O)c2nc(N3CCC(F)(F)C3)cnc2n1CC(=O)Nc1ccc(C(F)(F)F)cc1Cl` [I-177, N-[2-chloro-4-(trifluoromethyl)phenyl]-2-[2-(3,3-difluoropyrrolidin-1-yl)-6-ethyl-7-[4-(5-hydroxy-6-methylpyrimidine-4-carbonyl)piperazin-1-yl]-8-oxo-5H,8H-pyrido[2,3-b]pyrazin-5-yl]acetamide], the IC50 in experiment [1] was in the range of 0.005 to 0.05 µM. Also, the EC50 in experiment [2] (Homo sapiens, HCT-116, 24 h) is more than 5 µM.

Regarding `[2H]C([2H])([2H])Nc1cnc2c(n1)c(=O)c(N1CCN(C(=O)c3ncnc(C)c3O)[C@H]3CC[C@@H]31)c(CC)n2CC(=O)Nc1ccc(C(F)(F)F)cc1Cl` [I-226, N-[2-chloro-4-(trifluoromethyl)phenyl]-2-{6-ethyl-7-[(1S,6S)-5-(5-hydroxy-6-methylpyrimidine-4-carbonyl)-2,5-diazabicyclo[4.2.0]octan-2-yl]-2-[(methyl-d3)amino]-8-oxo-5H,8H-pyrido[2,3-b]pyrazin-5-yl}acetamide], in experiment [1], the IC50 is not above 0.005 µM. The EC50 in experiment [2] (Homo sapiens, HCT-116, 24 h) is less than 0.5 µM.

In the case of `CCc1c(N2CCN(C(=O)c3ncnc(C)c3O)[C@H]3CC[C@@H]32)c(=O)c2nc(N[C@H](C)[C@H](C)O)cnc2n1CC(=O)Nc1ccc(C(F)(F)F)cc1Cl` [I-266, N-[2-chloro-4-(trifluoromethyl)phenyl]-2-{6-ethyl-7-[(1S,6S)-5-(5-hydroxy-6-methylpyrimidine-4-carbonyl)-2,5-diazabicyclo[4.2.0]octan-2-yl]-2-{[(2R,3S)-3-hydroxybutan-2-yl]amino}-8-oxo-5H,8H-pyrido[2,3-b]pyrazin-5-yl}acetamide], in experiment [1], the IC50 was 0.005 to 0.05 µM. For the same molecule, the EC50 in experiment [2] (Homo sapiens, HCT-116, 24 h) lay within 0.5 to 2 µM.

As to `CCc1c(N2CCN(C(=O)c3ncnc(C)c3O)CC2)c(=O)c2nc(N3CC4CC4C3)cnc2n1CC(=O)Nc1ccc(C(F)(F)F)cc1Cl` (stereo not drawn) [I-156, 2-(2-{3-azabicyclo[3.1.0]hexan-3-yl}-6-ethyl-7-[4-(5-hydroxy-6-methylpyrimidine-4-carbonyl)piperazin-1-yl]-8-oxo-5H,8H-pyrido[2,3-b]pyrazin-5-yl)-N-[2-chloro-4-(trifluoromethyl)phenyl]acetamide], the IC50 in experiment [1] is 0.005 to 0.05 µM. Besides, the EC50 in experiment [2] (Homo sapiens, HCT-116, 24 h) lay in the range of 0.5 to 2 µM.

As for `CCc1c(N2CCN(C(=O)c3ncnc(C)c3O)CC2)c(=O)c2nc(N3CC[C@@H]4CC[C@@H]43)cnc2n1CC(=O)Nc1ccc(C(F)(F)F)cc1Cl` (racemic) [I-230, rac-2-(2-(2-azabicyclo[3.2.0]heptan-2-yl)-6-ethyl-7-(4-(5-hydroxy-6-methylpyrimidine-4-carbonyl)piperazin-1-yl)-8-oxopyrido[2,3-b]pyrazin-5(8H)-yl)-N-(2-chloro-4-(trifluoromethyl)phenyl)acetamide], in experiment [1], the IC50 was in the range of 0.005 to 0.05 µM. Moreover, in experiment [2] (Homo sapiens, HCT-116, 24 h), the EC50 was less than 0.5 µM.

As for `CCc1c(N2CCN(C(=O)c3ncnc(C)c3O)C3COCC32)c(=O)c2nc(N(C)C)cnc2n1CC(=O)Nc1ccc(C(F)(F)F)cc1Cl` (single isomer, unassigned) [I-294, N-(2-chloro-4-(trifluoromethyl)phenyl)-2-(2-(dimethylamino)-6-ethyl-7-(4-(5-hydroxy-6-methylpyrimidine-4-carbonyl)hexahydrofuro[3,4-b]pyrazin-1(2H)-yl)-8-oxopyrido[2,3-b]pyrazin-5(8H)-yl)acetamide], the IC50 in experiment [1] was more than 0.5 µM. Moreover, the EC50 in experiment [2] was more than 5 µM.

With `CCc1c(N2CCN(C(=O)c3ncnc(C)c3O)[C@H]3CC[C@@H]32)c(=O)c2nc(N(C)C)cnc2n1CC(=O)Nc1ccc(OC(F)(F)F)cc1Cl` [I-199, N-[2-chloro-4-(trifluoromethoxy)phenyl]-2-[2-(dimethylamino)-6-ethyl-7-[(1S,6S)-5-(5-hydroxy-6-methylpyrimidine-4-carbonyl)-2,5-diazabicyclo[4.2.0]octan-2-yl]-8-oxo-5H,8H-pyrido[2,3-b]pyrazin-5-yl]acetamide], the IC50 in experiment [1] lay in the range of 0.005 to 0.05 µM. Also, the EC50 in experiment [2] (Homo sapiens, HCT-116, 24 h) is less than 0.5 µM.

In the case of `CCc1c(N2CCN(C(=O)c3ncnc(C)c3O)CC2)c(=O)c2nc(N3CCCC3)cnc2n1CC(=O)Nc1ccc(C(F)(F)F)cc1Cl` [I-75, N-(2-chloro-4-(trifluoromethyl)phenyl)-2-(6-ethyl-7-(4-(5-hydroxy-6-methylpyrimidine-4-carbonyl)piperazin-1-yl)-8-oxo-2-(pyrrolidin-1-yl)pyrido[2,3-b]pyrazin-5(8H)-yl)acetamide], the IC50 in experiment [1] lay in the range of 0.005 to 0.05 µM. Also, the EC50 in experiment [2] (Homo sapiens, HCT-116, 24 h) was 0.5 to 2 µM.

`CCc1c(N2CCN(C(=O)c3ncnc(C)c3O)[C@H]3CCC[C@H]32)c(=O)c2nc(N(C)C)cnc2n1CC(=O)Nc1ccc(C(F)(F)F)cc1Cl` (single isomer, unassigned) [I-208, N-(2-chloro-4-(trifluoromethyl)phenyl)-2-(2-(dimethylamino)-6-ethyl-7-(4-(5-hydroxy-6-methylpyrimidine-4-carbonyl)octahydro-1H-cyclopenta[b]pyrazin-1-yl)-8-oxopyrido[2,3-b]pyrazin-5(8H)-yl)acetamide]: the IC50 in experiment [1] lay in the range of 0.1 to 0.5 µM. Moreover, the EC50 in experiment [2] (Homo sapiens, HCT-116, 24 h) was more than 5 µM.

As to `CCc1c(N2CCN(C(=O)c3ncnc(C)c3O)CC2)c(=O)c2nc(N(C)C3CC3)cnc2n1CC(=O)Nc1ccc(C(F)(F)F)cc1Cl` [I-58, N-(2-chloro-4-(trifluoromethyl)phenyl)-2-(2-(cyclopropyl(methyl)amino)-6-ethyl-7-(4-(5-hydroxy-6-methylpyrimidine-4-carbonyl)piperazin-1-yl)-8-oxopyrido[2,3-b]pyrazin-5(8H)-yl)acetamide], the IC50 in experiment [1] is 0.005 to 0.05 µM. Besides, in experiment [2] (Homo sapiens, HCT-116, 24 h), the EC50 is less than 0.5 µM.

As for `CCc1c(N2CCN(C(=O)c3ncnc(C)c3O)[C@H]3CC[C@@H]32)c(=O)c2nc(N(C)C3CCC3O)cnc2n1CC(=O)Nc1ccc(C(F)(F)F)cc1Cl` (stereo partly drawn) [I-293, N-[2-chloro-4-(trifluoromethyl)phenyl]-2-{6-ethyl-7-[(1S,6S)-5-(5-hydroxy-6-methylpyrimidine-4-carbonyl)-2,5-diazabicyclo[4.2.0]octan-2-yl]-2-[(2-hydroxycyclobutyl)(methyl)amino]-8-oxo-5H,8H-pyrido[2,3-b]pyrazin-5-yl}acetamide], in experiment [1], the IC50 lay within 0.005 to 0.05 µM. In addition, in experiment [2] (Homo sapiens, HCT-116, 24 h), the EC50 was less than 0.5 µM.
